Reference: US20190029637A1, “A WEARABLE SENSOR, AND METHOD, TO MONITOR ANTI-COAGULATION THERAPY” (The Regents of the University of California, priority 2016, published 2019)

How the values were obtained:
[1] = Photoacoustic spectra of contaminated heparin in the presence of methylene blue; conditions: 5 wt. % contaminated heparin
From the text: In one exemplary implementation, the photoacoustic imaging system used for measurements is a Vevo 2100 commercial instrument (Visualsonics). The scanner is equipped with a 21 MHz-centered transducer (LZ250) and a Q-switched Nd:YAG laser. The laser uses an optical parameteric oscillator and second harmonic generator to generate a tunable laser between 680 and 970 nm with a 1 nm step size and a pulse of 4 to 6 ns at 20 Hz. The peak energy is 45±5 mJ at 20 Hz at the source. The full field-of-view is 14-23 mm wide. The acquisition rate is 5 frames per second. The samples were prepared in small tubing fixed in a self-developed phantom holder which was aligned at ˜10 mm under the transducer. The laser energy was calibrated and optimized using the build-in energy power meter and software before measurements. 100% laser energy was used with 21 MHz frequency and the gain was optimized from 10-40 dB to obtain 3D scans at 680-850 nm as well as photoacoustic spectra from 680 to 850 nm.
1×PBS solution was prepared via dissolving one PBS tablet into 200 mL deionized water. The 2 mM methylene blue was prepared fresh by dissolving reagent-grade powder in PBS followed by sonication for 30 minutes at 40 C and then filtering through 0.22 μm. The 0.4 mM methylene blue was prepared by dissolving 2 mM methylene blue with PBS. A batch of OSCS/heparin mixture that simulates OSCS contaminated heparin was prepared at the following steps: 100 μL of 50, 25, 5, 2.5, 0.5, 0.25 μg/mL OSCS, and PBS was added into 100 uL 1000 μg/mL heparin prepared in PBS solution, respectively. The working concentration of OSCS in the above solutions was 25, 12.5, 2.5, 1.25, 0.25, 0.125, 0.025, and 0 μg/mL OSCS, respectively, and the working concentration of heparin is 500 μg/mL. In other words, the heparin solution was contaminated by 5, 2.5, […], 0.05, 0.025, and 0%. The contrast signal of methylene blue/heparin mixture was optimized at the combination of 0.4 mM methylene blue and […]. […]
Data analysis were performed using the scanner's built-in software. […] The average and standard deviation were calculated. […]

Antithrombin = Antithrombin (Homo sapiens, UniProt P01008); conditions: cited from earlier work
Chain of Antithrombin (P01008 33-464): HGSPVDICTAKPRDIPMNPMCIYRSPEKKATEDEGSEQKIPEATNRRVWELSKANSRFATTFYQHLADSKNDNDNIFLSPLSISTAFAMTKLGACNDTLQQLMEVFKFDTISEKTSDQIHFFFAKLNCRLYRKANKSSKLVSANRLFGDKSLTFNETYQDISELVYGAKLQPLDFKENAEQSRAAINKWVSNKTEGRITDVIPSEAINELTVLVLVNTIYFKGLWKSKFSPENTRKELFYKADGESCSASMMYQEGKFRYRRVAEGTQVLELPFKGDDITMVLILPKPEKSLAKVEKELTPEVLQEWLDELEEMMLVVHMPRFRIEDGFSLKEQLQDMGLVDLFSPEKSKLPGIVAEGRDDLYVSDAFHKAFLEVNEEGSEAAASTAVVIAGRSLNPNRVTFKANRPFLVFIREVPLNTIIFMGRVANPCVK

[2] = Photoacoustic response of nanoparticle-bound methylene blue coating to heparin and protamine; conditions: 50 U/mL heparin-treated device, protamine 8 mg/mL
Protocol: The surface charge of these nanoparticle is −23 mV, which is too negative to allow association between the nanoparticle-bound dye and negatively charged heparin. Therefore, the charge of the particle was changed to produce a material that was both stable and responsive to heparin. To tune the nanoparticles, the same were treated with (3-mercaptopropyl) trimethoxysilane (MPTMS) to adjust the zeta potential to −15 mV (SSNP-SH). This material was used with agar gel to create a coating on a catheter tube.
More importantly, the methylene blue on these modified nanoparticles remain responsive to heparin with 51% more photoacoustic signal at 10 U/mL heparin than PBS for 1 h incubation. The signal enhancement was stable after constant imaging at 680 nm for 9 min (RSD<4%) This system was also reversible. When the 50 U/mL-treated device was reversed with protamine (8 mg/mL), the signal decreased by 42% versus no protamine treatment. The higher signal of the heparin-treated hybrid versus PBS-treated hybrid is likely due to interactions between methylene blue and heparin, which increases the photoacoustic signal and decreases diffusion of this complex and free methylene blue into solution.

Substance	715 nm peak amplified compared to pure heparin in methylene blue [1]	other results
oversulfated chondroitin sulfate [OSCS]	400%	
dermatan sulfate [DS]	475%	
heparin		increase of the activity of antithrombin (Antithrombin): 10^3 fold
chondroitin sulfate [CS]	476%	
protamine sulfate		signal decrease versus no protamine treatment [2]: 42%
